From patent US7923465B2, “Cannabinoid receptor ligands, pharmaceutical compositions containing them, and process for their preparation” (priority 2005, dated 2011)

Key:
hCB1 = hCB1 (Homo sapiens, UniProt P21554); assay: In vitro binding assay using hCB1-CHO membranes, [3H]-CP-55,940 displacement (Protocol II); parameters: expressed in transfected cells; host or cells: CHO (hCB1-CHO, generated in-house)
Experimental: II. Protocol for In Vitro Assay Using hCB1-CHO Membranes
The reaction was set up in a total volume of 200 μl in PEI (Poly(ethyleneimine)) (0.2%) precoated Millipore GFB (Glass Fibre-B) filter plates. 1 mM stocks of test compounds were prepared in DMSO and tested at a final concentration of 300 nM. The non-specific binding was determined by 0.5 μM CP-55, 940. […] The assay mixture (with or without the test compound) was incubated at 37° C. for 1 hour. The reaction was stopped by rapid filtration under vacuum and the radioactivity on the filters was measured by liquid scintillation counting.

hCB2 = hCB2 (Homo sapiens, UniProt P34972); assay: In vitro binding assay using hCB2-CHO membranes, [3H]-CP-55,940 displacement (Protocol IV); parameters: expressed in transfected cells; host or cells: CHO (hCB2-CHO, generated in-house); settings: hCB2-CHO membranes, [3H]-CP-55,940 displacement; for inhibition at 0.3 µM: 1 h, read-out: % Displacement Protocol IV
Procedure, shortened: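 Compounds were tested at a single 300 nM final concentration for displacing 0.75 nM [3H]-CP-55,940 from hCB2-CHO membranes (1 h, 30 °C, 50 mM Tris pH 7.4, 5 mM MgCl2, 1 mM EDTA, 0.1% BSA). Filter-bound radioactivity was counted, with 0.5 μM unlabelled CP-55,940 for nonspecific binding; results are % displacement.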

CB1 [1] = biological target: T1, CB1 (Rattus norvegicus, UniProt P20272); assay: Rat CB1 receptor binding using brain membrane, [3H]SR141716A displacement (Protocol I); parameters: CB1 receptor present in a rat brain membrane preparation; from tissue; host or cells: rat brain membrane; inhibition: dose or concentration left out as unconfirmed; settings: 1 h; rat brain membrane, [3H]SR141716A displacement; read-out: % Displacement Protocol I
CB1 [2] = biological target: T1, CB1; assay: GTPγS binding assay, CB1 functional assay in rat cerebellar membrane (Protocol VIII); assay type: biochemical; parameters: 10 μg rat cerebellum membrane; from tissue; host or cells: rat cerebellum membrane, prepared in-house; settings: for activation at 1 µM: 1 h, GTPγS binding over basal, rat cerebellar membrane, tested at 1 uM, read-out: Per Se % Stimulation; for inhibition at 1 µM: GTPγS binding, tested at 1 uM in presence of 1 μM WIN 55,212-2, read-out: % Inhibition of WIN-55212-2 induced stimulation
Experimental: VIII. Protocol for GTPγS Binding Assay (CB1 Functional Assay in Rat Cerebellar Membrane)
In this GTPγS binding assay, total, basal and nonspecific binding were determined. See Griffin G., Atkinson P. J., Showalter V. M., Martin B. R. and Abood M. E., “Evaluation of cannabinoid receptor agonists and antagonists using the Guanosine-5′-O-(3-(^35S)thio)-triphosphate binding assay in rat cerebellar membranes,” J Pharmacol Exp Ther 285: 553-560, 1998. Three wells for total binding, three wells for basal binding, and three wells for nonspecific binding at 0.2 nM concentration of radioligand were used. Basal binding was defined by 50 μM GDP (Guanosine diphosphate) and non-specific binding was defined by 10 μM unlabeled GTPγS. 10 μg rat cerebellum membrane, 50 μM of GDP, WIN-55212-2 or test compound (1 μM or 300 nM), 10 μM unlabeled GTPγs, and 0.2 nM of [^35S]GTPγS were added into a 96 well plate and the final volume of the reaction mixture was made with GTPγS buffer (50 mM Tris, 3 mM anhydrous MgCl2, 0.2 mM EGTA and 100 mM NaCl pH 7.4) to 200 μl. The plates were incubated at 30° C. for 1 hour. Then the reaction was stopped by filtration using a Whatman GF/B-96 microfilter plate. Three washings were given using Tris-HCl. The radioactivity bound to the brain membrane was retained on the filter disks to which scintillation fluid was added (Microscint PS). Then plates were read for radioactive counts using a Beta Liquid Scintillation Counter (Packard Instruments, Ill., USA).
The rat cerebellar brain membrane was prepared as follow: • 1. Sacrifice the rat and take out the whole brain and separate cerebellum as fast as possible and keep it on ice. • 2. Take the weight of the cerebellum and homogenize in 30 ml of homogenizing buffer (50 mM Tris-HCL containing 1 mM EDTA and 5% sucrose, pH 7.5) using homogenizer in cold condition. • 3. Centrifuge the homogenized cerebellum at 18000 rpm (38000 g) for 15 min at 4° C. • 4. Resuspend the pellet in 5 ml 50 mM Tris-HCL containing 1 mM EDTA and keep it on ice for 30 min. • 5. Pass the membrane through insulin syringe to ensure uniform suspension. • 6. Centrifuge the membrane at 18000 rpm at 4° C. for 20 min. • 7. Reconstitute the pellet in 3 ml of GTPγS buffer and estimate the protein by BCA assay and store the membrane in aliquots of 1000 μg of protein. CB1 Agonist and Antagonist Activity Screening Assay
The test compounds were screened at a final concentration of 1 μM or 300 nM in the absence and presence of 1 μM of WIN 55, 212-2 in the same manner as described in the GTPγS binding assay.
An agonist will stimulate the GTPγS binding over the basal.
An inverse agonist will decrease the basal GTPγS binding and/or produce more than 100% inhibition of the agonist (WIN-55212-2) induced stimulation.
The percent stimulation of GTPγS binding by each test compound at 1 μM or 300 nM concentration in the absence and presence of 1 μM WIN 55, 212-2 was calculated by comparing it with basal specific bound (Basal binding—Non Specific binding) values.

Sequence of hCB1 (P21554 whole entry): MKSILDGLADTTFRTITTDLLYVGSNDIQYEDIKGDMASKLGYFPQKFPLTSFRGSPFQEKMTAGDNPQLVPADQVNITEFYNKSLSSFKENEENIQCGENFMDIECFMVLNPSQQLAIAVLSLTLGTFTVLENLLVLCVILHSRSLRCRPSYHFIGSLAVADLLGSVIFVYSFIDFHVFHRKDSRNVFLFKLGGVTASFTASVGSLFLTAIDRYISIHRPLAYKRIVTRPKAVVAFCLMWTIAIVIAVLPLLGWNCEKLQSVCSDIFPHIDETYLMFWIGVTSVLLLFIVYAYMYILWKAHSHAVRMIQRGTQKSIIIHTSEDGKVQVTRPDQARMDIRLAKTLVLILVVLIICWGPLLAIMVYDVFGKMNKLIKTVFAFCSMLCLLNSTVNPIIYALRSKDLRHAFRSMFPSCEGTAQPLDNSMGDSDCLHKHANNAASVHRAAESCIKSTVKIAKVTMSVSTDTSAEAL
Sequence of hCB2 (P34972 whole entry): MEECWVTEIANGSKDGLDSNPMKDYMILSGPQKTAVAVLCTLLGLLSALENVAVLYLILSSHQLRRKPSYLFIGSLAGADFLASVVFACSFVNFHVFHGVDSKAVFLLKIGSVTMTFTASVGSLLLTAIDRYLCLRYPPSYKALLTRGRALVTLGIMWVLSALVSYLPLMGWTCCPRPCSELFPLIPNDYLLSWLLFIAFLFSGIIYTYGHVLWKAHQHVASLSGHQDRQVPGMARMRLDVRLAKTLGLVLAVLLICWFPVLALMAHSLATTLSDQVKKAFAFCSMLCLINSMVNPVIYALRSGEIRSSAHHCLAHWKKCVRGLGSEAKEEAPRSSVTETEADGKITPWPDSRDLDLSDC
T1 sequence (P20272 whole entry): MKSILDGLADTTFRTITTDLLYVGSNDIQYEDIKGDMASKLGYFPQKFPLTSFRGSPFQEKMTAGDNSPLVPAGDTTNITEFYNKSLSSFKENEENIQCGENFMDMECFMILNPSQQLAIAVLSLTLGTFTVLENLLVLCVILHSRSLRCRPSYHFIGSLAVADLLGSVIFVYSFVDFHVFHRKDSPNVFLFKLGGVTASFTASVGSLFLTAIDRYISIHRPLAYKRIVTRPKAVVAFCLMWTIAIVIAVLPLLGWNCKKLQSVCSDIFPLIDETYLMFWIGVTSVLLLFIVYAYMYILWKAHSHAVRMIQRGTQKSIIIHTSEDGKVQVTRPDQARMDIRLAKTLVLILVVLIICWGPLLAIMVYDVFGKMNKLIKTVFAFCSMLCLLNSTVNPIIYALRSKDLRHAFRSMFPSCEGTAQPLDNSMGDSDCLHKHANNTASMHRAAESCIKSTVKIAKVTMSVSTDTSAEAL

Row | SMILES | % Displacement Protocol II (hCB1) [%] | % Displacement Protocol IV (hCB2) [%] | other results
1 | CC1(C)C2CC[C@@](C)(C2)C1NC(=O)c1nn(-c2ccc(Cl)cc2)c2c1C1CC3CC(C1)CC2C3 (stereo partly drawn) [Example 110, N(7)-(1S,2endo-1,3,3-Trimethyl-bicyclo[2.2.1]hept-2-yl)-5-(4-chlorophenyl)-5,6-diazatetracyclo[7.3.1.1^3,11.0^4,8]tetradeca-4(8)-6-diene-7-carboxamide] | 37.69 | 60.7 | 
2 | C[C@@H](NC(=O)c1nn(-c2ccc(Cl)cc2)c2c1C1CC3CC(C1)CC2C3)c1ccccc1 [Example 118] | 45.43 | 61.23 | 
3 | O=C(NC12CC3CC(CC(C3)C1)C2)c1nn(-c2ccc(F)cc2F)c2c1C1CC3CC(C1)CC2C3 [Example 144, N(7)-(Adamantan-1-yl)-5-(2,4-difluorophenyl)-5,6-diazatetracyclo[7.3.1.1^3,11.0^4,8]tetradeca-4(8)-6-diene-7-carboxamide] | 40.13 | 69.24 | 
4 | CC1(C)[C@@H]2CC[C@@](C)(C2)[C@@H]1NC(=O)c1nn(-c2ccc(F)cc2F)c2c1C1CC3CC(C1)CC2C3 [Example 145, N(7)-(1S,2endo-1,3,3-Trimethyl-bicyclo[2.2.1]hept-2-yl)-5-(2,4-difluorophenyl)-5,6-diazatetracyclo[7.3.1.1^3,11.0^4,8]tetradeca-4(8)-6-diene-7-carboxamide] | 54.01 | 75.88 | 
5 | C[C@H](NC(=O)c1nn(-c2ccc(F)cc2F)c2c1C1CC3CC(C1)CC2C3)c1ccccc1 [Example 146] | 60.51 | 68.16 | 
6 | COC(=O)[C@H](NC(=O)c1nn(-c2ccc(F)cc2F)c2c1C1CC3CC(C1)CC2C3)c1ccccc1 [Example 154, Methyl(2R)-2-[7-(2,4-difluorophenyl)-6,7-diazatetracyclo[7.3.1.1^3,11.0^4,8]tetradeca-4(8),5-dien-5-ylcarboxamido]-2-phenylethanoate] | 96.1 | 70.19 | 
7 | COC(=O)[C@@H](NC(=O)c1nn(-c2ccc(F)cc2F)c2c1C1CC3CC(C1)CC2C3)c1ccccc1 [Example 155, Methyl(2S)-2-[7-(2,4-difluorophenyl)-6,7-diazatetracyclo[7.3.1.1^3,11.0^4,8]tetradeca-4(8),5-dien-5-ylcarboxamido]-2-phenylethanoate] | 96.65 | 72.38 | 
8 | O=C(NC12CC3CC(CC(C3)C1)C2)c1nn(-c2ccc(F)cc2)c2c1C1CC3CC(C1)CC2C3 [Example 158, N(7)-(Adamantan-1-yl)-5-(4-fluorophenyl)-5,6-diazatetracyclo[7.3.1.1^3,11.0^4,8]tetradeca-4(8)-6-diene-7-carboxamide] | 70.12 | 95.4 | 
9 | CCCCCn1nc(C(=O)NC(C)(C)c2ccccc2)c2c1C1CC3CC(CC2C3)C1 [Example 190b, N(7)-(1-Methyl-1-phenylethyl)-5-pentyl-5,6-diazatetracyclo[7.3.1.1^3,11.0^4,8]tetradeca-4(8)-6-diene-7-carboxamide] | 100 | 96.07 | 
10 | O=C(Nc1cccc(Cl)c1)c1nn(-c2ccc(Cl)cc2)c2c1C1CCC2C1 (stereo not shown) [Example 215, N(3)-(3-Chorophenyl)-1-(4-chlorophenyl)-4,5,6,7-tetrahydro-1H-4,7-methano-indazole-3-carboxamide] | 1.38 |  | 
11 | O=C(NNc1cccc(F)c1)c1nn(-c2ccc(Cl)cc2)c2c1C1CCC2C1 (stereo not shown) [Example 233, N(3)-[(3-Fluorophenyl)amino]-1-(4-chlorophenyl)-4,5,6,7-tetrahydro-1H-4,7-methano-indazole-3-carboxamide] |  |  | inhibition (CB1 [1]): 73.2%; melting point: 199 °C; inhibition at 0.3 µM (hCB2): 46.2%; activation at 1 µM (CB1 [2]): -16.3%; inhibition at 1 µM (CB1 [2]): 79.5%
12 | O=C(NCc1ccc(F)cc1)c1nn(-c2ccc(Cl)cc2Cl)c2c1C1CCC2C1 (stereo not shown) [Example 246, N(3)-(4-Fluorobenzyl)-1-(2,4-dichlorophenyl)-4,5,6,7-tetrahydro-1H-4,7-methano-indazole-3-carboxamide] |  |  | inhibition (CB1 [1]): 46%; melting point: 106 to 108 °C; inhibition at 0.3 µM (hCB2): 30.4%; activation at 1 µM (CB1 [2]): 0.7%; inhibition at 1 µM (CB1 [2]): 98.9%
13 | O=C(NNc1ccccc1Cl)c1nn(-c2ccc(F)cc2F)c2c1C1CCC2C1 (stereo not shown) [Example 286, N(3)-[(2-Chlorophenyl)amino]-1-(2,4-difluorophenyl)-4,5,6,7-tetrahydro-H-4,7-methano-indazole-3-carboxamide] | 32.35 |  | 
14 | C[C@H](NC(=O)c1n[nH]c2c1C1(c3ccc(F)cc3F)CCC2C1)c1ccccc1 (stereo partly drawn) [Example 292, N(3)-[S-(1-Phenylethyl)]-4-(2,4-difluorophenyl)-4,5,6,7-tetrahydro-1H-4,7-methano-indazole-3-carboxamide] | 69.79 |  | 
15 | COC(=O)[C@@H](NC(=O)c1nn(-c2ccc(F)cc2F)c2c1C1CCC2C1)c1ccccc1 (stereo partly drawn) [Example 301, Methyl(2S)-2-[5-(2,4-difluorophenyl)-4,5-diazatricyclo[5.2.1.0.^2,6]deca-2(6),3-dien-3-ylcarboxamido]-2-phenylethanoate] | 82.54 | 82.09 | 
16 | O=C(NN1CCOCC1)c1nn(-c2ccc(F)cc2F)c2c1C1CCC2C1 (stereo not shown) [Example 312, 4-[5-(2,4-Difluorophenyl)-4,5-diazatricyclo[5.2.1.0^2,6]deca-2(6),3-dien-3-ylcarboxamido]morpholine] | 10.97 | 4.47 | 
17 | COC(=O)[C@H](NC(=O)c1nn(-c2ccc(F)cc2F)c2c1C1CCC2C1)c1ccccc1 (stereo partly drawn) [Example 319, Methyl (2R)-2-[5-(2,4-difluorophenyl)-4,5-diazatricyclo[5.2.1.0.^2,6]deca-2(6),3-dien-3-ylcarboxamido]-2-phenylethanoate] | 88.02 | 86.68 | 
